Data published in patent US20110257146A1, “Method of Treating Kcnq Related Disorders Using Organozinc Compounds” (The johns Hopkins University, priority 2006, published 2011).

Key:
KCNQ2(L249A/L275A) = biological target: T1, KCNQ2(L249A/L275A) (Rattus norvegicus, UniProt O88943, L249A/L275A); assay: Whole-cell recording of KCNQ2(L249A/L275A) mutant; format: cell-based
T1 construct: expressed in transfected cells
Description: (§1) FIG. 9. KCNQ2 point mutants selectively lose ZnPy sensitivity. […] Each mutation site was indicated based on the predicted transmembrane regions. Dashed line indicates the potentiation level of wt KCNQ2 channel in the absence of ZnPy. […] C. Modeling of the S5-pore-S6 region of KCNQ2.
(§2) Mutagenesis—Starting from KCNQ cDNAs, the KCNQ2 point mutants were constructed by recombinant PCR and verified by sequencing.
(§3) Electrophysiological Recording—Standard whole-cell recording was used. Pipettes were pulled from borosilicate glass capillaries (TW150-4, World Precision Instruments, Sarasota, Fla.). When filled with the intracellular solution, the pipettes have resistances of […]. During the recording, constant perfusion of extracellular solution was maintained using a BPS perfusion system (ALA, Westbury, N.Y.). Pipette solution contained (mM): KCl 145, MgCl2 1, EGTA 5, HEPES 10, MgATP 5 (pH 7.3); extracellular solution contained (mM): NaCl 140, KCl 3, CaCl2 2, MgCl2 1.5, HEPES 10, glucose 10 (pH 7.4). Current and voltage were recorded using an Axopatch-200A amplifier, filtered at 1 kHz and digitized using a DigiData 1322A with pClamp 9.2 software (Axon Instruments, Foster City, Calif.). Series resistance compensation was also used and set to 60-80%.

KCNQ2 L275A = biological target: T2, KCNQ2 L275A (Rattus norvegicus, UniProt O88943, L275A); assay: Whole-cell recording of KCNQ2 L275A mutant; format: cell-based
T2 construct: expressed in transfected cells
Description: as §1, §2, §3

[1] = Rat model of severe global ischemia; conditions: in vivo
M-current = assay: Native M-current in isolated dorsal root ganglion neurons; format: cell-based, rat; conditions: 10 μM ZnPy
Method: FIG. 10. ZnPy potentiation of native M-current. A. M current recorded from an isolated rat dorsal root ganglion neuron, Vh was −60 mV, stepped to −20 mV, followed by a step to −50 mV, and stepped back to −20 mV. B. Histograms show M-current amplitudes in the presence and absence of 10 μM ZnPy (n=10, * p<0.001). M-current amplitudes were measured by fitting the IM relaxation with an exponential equation. The recording bath solution includes 1 μM TTX, 0.2 mM TEA, 1 mM 4-AP, 50 μM CNQX, and 10 μM bicuculline. C. Membrane potential of an isolated hippocampal neuron was monitored when 10 μM ZnPy was applied in bath solution followed by the addition of 15 μM linopirdine. D. Action potentials elicited by 200 pA current injection to a patched hippocampal neuron. The ZnPy treatments are as indicated.
Neuron Culture—Dorsal root ganglia (DRG) was collected from fourteen-day-old CD rat and incubated in collagenase (sigma, 500 U/ml, 15 min) and then trypsin (Sigma, 1 mg/ml, 30 min) at 37° C. Single DRG neurons were isolated by mechanical trituration with a fire-polished glass Pasteur pipette. […]
(§4) Electrophysiological Recording—Standard whole-cell recording was used. […] Current and voltage were recorded using an Axopatch-200A amplifier, filtered at 1 kHz and digitized using a DigiData 1322A with pClamp 9.2 software (Axon Instruments, Foster City, Calif.). […]

KCNQ5 = biological target: T3, KCNQ5 (Homo sapiens, UniProt Q9NR82); assay: Whole-cell voltage clamp of CHO cells expressing KCNQ5; format: cell-based; conditions: 10 μM ZnPy, extracellular
T3 construct: expressed in transfected cells; host or cells: CHO cells
Method: Cell culture and transient transfection—Chinese Hamster Ovary (CHO) cells were grown in 50/50 DMEM/F12 (Cellgro) with 10% FBS (Gibco), 100 U/ml penicillin (Cellgro), 100 μg/ml streptomycin (Cellgro) and 2 mM L-glutamine (Gibco). At 24 hours before transfection, cells were split and plated in 60 mm dishes and were transfected with Lipofectamine2000™ reagent (Invitrogen) according to the manufacturer's instruction. At 24 hours after transfection, cells were split and re-plated onto coverslips coated with poly-L-lysine (Sigma). Plasmid expressing CD4 cDNA as a marker was cotransfected with the channel cDNAs of hKCNQ1 (from Dr. Michael Sanguinetti), hKCNQ4 (from Dr. Vitya Vardanyan), rKCNQ2, rKCNQ3, and hKCNQ5 (from Drs. David McKinnon, Mark Shapiro, and Thomas Jentsch). Prior to recording, anti-CD4 Dynabeads (Dynal. Biotech. Inc.) were added into the medium to allow for identification of the transfected cells. Stable lines expressing Kv2.1, hERG, and Kv4.2 were generated by standard protocols using pcDNA3.1 and maintained at complete medium supplemented with 500 μg/ml G418. […]
as §4

KCNQ2 = KCNQ2 (Rattus norvegicus, UniProt O88943); assay: Non-radioactive rubidium efflux assay (KCNQ2 screen, HEK 293); format: cell-based; parameters: expressed in transfected cells
Method: To identify compounds with agonistic activities for M currents, stable cell lines for both KCNQ2 and KCNQ2/3 were generated. Under a pre-calibrated condition of medium-level rubidium efflux responses, more than 20,000 small molecule compounds were screened at a concentration of 10 μM. The selected condition allowed for identification of both inhibitors and potentiators. Selected compounds either increased or decreased the rubidium responses by more than 15% when compared to the control. A subset of the compounds were selected and validated for both potency and specificity.
KCNQ2 screen—HEK 293 cells stably expressing rat KCNQ2 were resuspended in DMEM/F12 medium and plated at a density of 4×10^4/well in poly-L-Lysine coated 96-well plates. Cells were then incubated at 37° C. with 5% CO2 overnight. 30 μl/well DMEM/F12 medium containing 30 mM RbCl was added to the cells the next day, followed by incubation for an additional 3 hours. Cell plating and reagent dispensing were done using a Multidrop 384 dispenser (Thermo Electron Corporation).
Compound addition and Rb^+ efflux assay were programmed and performed on a Cybi-Well™ system and Tekbench liquid handling system (Tekcel Inc., Hopkinton, Mass.), respectively. […] Rb^+ concentrations in both supernatant and cell lysates were measured by atomic absorption spectrometry using an ICR8000 instrument (Aurora Biomed, Vancouver, Canada).

In the case of `S=c1ccccn1[O][Zn][O]n1ccccc1=S` [ZnPy, Zinc Pyrithione], the “V1/2 shift caused by ZnPy” value (KCNQ2(L249A/L275A)) is reported as “completely abolished the V1/2 shift”, the “folds of current increase” value (KCNQ2(L249A/L275A); +50 mV, ZnPy) is reported as 8.6±2.2 folds and the “change in V1/2 caused by ZnPy” value (KCNQ2 L275A) is reported as “significant reduction on changes in V1/2”. For the same compound, the neuroprotection [1] was “protection against cell loss in the selectively vulnerable zone of the CA1 region of the hippocampus”, the “potentiation of M-current amplitude” value (M-current) was 1.9 fold and the “effect on channel activity” value (KCNQ5) was “became conductive upon ZnPy treatment”. For the same compound, the “elevation of KCNQ activity by rubidium efflux” value (KCNQ2) was “unusual potency in elevating KCNQ activities”.
